These results are taken from ChEMBL document CHEMBL1140714, “In search of novel agents for therapy of tropical diseases and human immunodeficiency virus” (J Med Chem, 2008).

Calls of active or inactive are those of the source. The rule behind the calls is not given here.

The test system of series [1] is Plasmodium falciparum. Description: Antiplasmodial activity against chloroquine-sensitive Plasmodium falciparum NF54. The format is functional, organism-based.
A further series has as its system Staphylococcus aureus. The series is described as follows: Antibacterial activity against Staphylococcus aureus assessed as inhibition of biofilm formation. The format is functional, organism-based.
Series [2] relates to Plasmodium falciparum. The series is described as follows: Antiplasmodial activity against Plasmodium falciparum NF54 after 72 hrs. The format is functional, organism-based. Particulars: NF54, 72 h.
Series [3] has as its system Trypanosoma brucei brucei. The series is described as follows: Antitrypanosomal activity against Trypanosoma brucei brucei TC221. The format is functional. As to conditions: read-out: ED50 (the source's name).
Another series has as its system Leishmania major. The series is described as follows: Antileishmanial activity against Leishmania major MHOM/IL/81/FE/BNI infected in BALB/c mouse. The format is functional.
The nature of series [4]: Cytotoxicity against mouse J774.1 cells after 48 hrs. The format is cell-based. As to conditions: read-out: ED50.
Series [5] relates to Plasmodium falciparum. Description: Antiplasmodial activity against Plasmodium falciparum NF54 infected mice (Mus musculus) after 72 hrs. The format is functional, organism-based. Particulars: NF54, 72 h.
Series [6] has as its system Human immunodeficiency virus 1. Description: Antiviral activity against HIV1 BaL replication in PM1 cells. It is filed as functional.
In series [7] the test system is Human immunodeficiency virus 1. Description: Antiviral activity against HIV1 NL4/3 replication in PM1 cells. The format is functional.
Series [8] has as its system Plasmodium falciparum. Description: Antiplasmodial activity against chloroquine-resistant Plasmodium falciparum. It is filed as functional, organism-based.
Series [9] has as its system Plasmodium falciparum. Description: Antiplasmodial activity against chloroquine-sensitive Plasmodium falciparum. It is filed as functional, organism-based.
For series [10], the system named is Plasmodium falciparum. The series is described as follows: Antiplasmodial activity against Plasmodium falciparum NF54 after 24 hrs. It is filed as functional, organism-based. Particulars: NF54, 24 h.
The test system of series [11] is Plasmodium falciparum. Description: Inhibition of parasitemia in chloroquine-sensitive Plasmodium falciparum NF54 infected C57BL/6 mice (Mus musculus) after 1 day at 40 uM. It is filed as functional. The arrangement: scale not given: the % may be the effect or the level left.
Series [12] concerns Plasmodium falciparum. Description: Inhibition of parasitemia in chloroquine-sensitive Plasmodium falciparum NF54 infected C57BL/6 mice (Mus musculus) after 2 days at 20 uM. It is filed as functional. On the set-up: scale not given: the % may be the effect or the level left.
Series [13] deals with Mus musculus. Description: Increase in survival of chloroquine-sensitive Plasmodium falciparum NF54 infected intravenously dosed C57BL/6 mice (Mus musculus). The format is functional, organism-based.
The test system of series [14] is Plasmodium falciparum. Description: Inhibition of parasitemia in chloroquine-sensitive Plasmodium falciparum NF54 infected C57BL/6 mice (Mus musculus) after 4 days. The arrangement: scale not given: the % may be the effect or the level left. The format is functional.
Series [15] has as its system Mus musculus. Description: Increase in survival of chloroquine-sensitive Plasmodium falciparum NF54 infected perorally dosed C57BL/6 mice (Mus musculus). The format is functional, organism-based.
In series [16] the test system is Human immunodeficiency virus 1. The series is described as follows: Antiviral activity against HIV1 BaL replication in PM1 cells at 5 uM. It is filed as functional, organism-based.
Series [17] relates to Human immunodeficiency virus 1. Description: Antiviral activity against HIV1 NL4/3 replication in PM1 cells at 6 uM. The format is functional, organism-based.
The test system of series [18] is Plasmodium falciparum. Description: Antiplasmodial activity against Plasmodium falciparum NF54 after 36 hrs. As to conditions: NF54, 36 h. The format is functional, organism-based.
The subject of series [19] is Plasmodium falciparum. The series is described as follows: Antiplasmodial activity against Plasmodium falciparum NF54 after 48 hrs. It is filed as functional, organism-based. Particulars: NF54, 48 h.
[20] abbreviates: Plasmodium falciparum, read-out: IC50.

The molecule `Cc1cc(C2CCCCC2)n(O)c(=O)c1` [CICLOPIROX OLAMINE] had an IC50 in the series on Plasmodium falciparum [1] of 8.2 µM.

For `C[C@@H]1CC2(C[C@H](C)N1)C(=O)N(Cc1ccc([N+](=O)[O-])cc1)C(=O)N2Cc1ccccc1` (stereo partly drawn), in the series on Staphylococcus aureus, the result was inactive. This molecule also registered a concentration for half-maximal inhibition (IC50) in the series with Plasmodium falciparum [2] of 14.6 µM. The EC50 in [3] is 3.74 µM. In addition, the ED50 in the series on Leishmania major was above 100 µM. For the same molecule, the CC50 at 48 h in series [4] stood at 42.4 µM.

`CCOC(=O)C1C(=O)C(C(=O)OCC)[C@H](c2ccc([N+](=O)[O-])cc2)N(Cc2ccccc2)[C@@H]1c1ccc([N+](=O)[O-])cc1` (stereo partly drawn): the outcome with Staphylococcus aureus was inactive. For the same molecule, the IC50 with Plasmodium falciparum [5] worked out at 10.1 µM. Besides, the EC50 in series [3] is 2.72 µM. Moreover, the CC50 at 48 h in [4] is above 100 µM. Also, the Inhibition in [6] and in series [7] was 20% in each case.

Consider `N[C@@H](Cn1ccc(=O)c(O)c1)C(=O)O` [L-MIMOSINE], for which the half-inhibitory concentration (IC50) in the series with Plasmodium falciparum [8] stood at 39 µM; in the series with Plasmodium falciparum [9] (setting [20]), 32 µM.

With `COC(=O)C1=C(c2ccccn2)N(Cc2ccccc2)C(c2ccccn2)CC1=O` (stereo not drawn), the result with Staphylococcus aureus was inactive. For the same molecule, inhibition with Plasmodium falciparum [10] was half-maximal at 4.7 µM (IC50). In [3], the EC50 is above 100 µM.

As for `COC(=O)C1C(=O)C(C(=O)OC)[C@H](c2ccccn2)N(Cc2ccccc2)[C@@H]1c1ccccn1` (stereo partly drawn), the result in the series with Staphylococcus aureus was inactive. Also, the figures for the IC50 in the series with Plasmodium falciparum [2] and in the series with Plasmodium falciparum [10] were 10.9 µM and 10.2 µM, respectively. Further, in the series with Leishmania major, the ED50 is 55.99 µM. Besides, the CC50 at 48 h in series [4] worked out at 34 µM. Further, the Activity in the series on Plasmodium falciparum [11] and in the series with Plasmodium falciparum [12] was 0% each time. The outcome in the series on Mus musculus [13] was Active.

`CC[C@@H]1CC2(C[C@H](CC)N1)C(=O)N(CCCc1ccccc1)C(=O)N2c1ccccc1` (stereo partly drawn): the outcome with Staphylococcus aureus was inactive. For the same molecule, in series [3], the EC50 turned out to be 13.4 µM. In addition, the ED50 in the series on Leishmania major is above 100 µM. For the same molecule, in series [4], the CC50 at 48 h was above 100 µM. Further, in the series with Plasmodium falciparum [9], the IC50 result was “Not Active”.

On to `NC(Cn1ccc(=O)c(O)c1)C(=O)O` (stereo not drawn) [MIMOSINE], for which the half-maximal inhibitory concentration (IC50) stood at 39 µM with Plasmodium falciparum [8] and 32 µM in the series with Plasmodium falciparum [9] (setting [20]). Besides, the EC50 in [3] is above 100 µM.

Consider `C=CCN1[C@H](c2ccc([N+](=O)[O-])cc2)C(C(=O)OCC)C(=O)C(C(=O)OCC)[C@@H]1c1ccc([N+](=O)[O-])cc1` (stereo partly drawn), for which, in the series on Staphylococcus aureus, the result was inactive. Half-maximal inhibition in the series with Plasmodium falciparum [5] (IC50) required 11 µM. The EC50 in [3] is 3.06 µM. For the same molecule, the CC50 at 48 h in series [4] was above 100 µM. In the series on Plasmodium falciparum [14], this molecule displayed an Activity of 0%. For the same molecule, the outcome (with Mus musculus [15]; in [16]; in series [17]) was Active.

As to `CC[C@@H]1CC2(C[C@@H](CC)N1)C(=O)NC(=O)N2Cc1ccccc1` (stereo partly drawn), in the series with Staphylococcus aureus, the outcome was inactive. In addition, in series [3], the EC50 was above 100 µM. Moreover, in the series on Leishmania major, the ED50 was above 100 µM. In addition, the CC50 at 48 h in series [4] is above 100 µM. For the same molecule, the IC50 entry in the series with Plasmodium falciparum [9] is recorded as “Not Active”.

With `COC(=O)c1c(-c2ccccn2)n(Cc2ccc(Cl)cc2)c(-c2ccccn2)cc1=O`, the result in the series with Staphylococcus aureus was inactive. Besides, in the series with Plasmodium falciparum [18], half-maximal inhibition (IC50) required 9.4 µM. The EC50 in series [3] was above 100 µM. In the series on Leishmania major, this molecule displayed an ED50 above 100 µM. Further, in series [4], the CC50 at 48 h is above 100 µM.

Consider `COC(=O)C1=C(O)C[C@H](c2ccccn2)N(Cc2ccc(Cl)cc2)[C@@H]1c1ccccn1`, for which, in the series with Staphylococcus aureus, the outcome was inactive. Also, the IC50 is 12 µM with Plasmodium falciparum [2] and 1.7 µM with Plasmodium falciparum [19]. Moreover, the EC50 in series [3] amounted to 0.32 µM. The ED50 in the series with Leishmania major was 87.93 µM. Moreover, the CC50 at 48 h in series [4] was found to be 32.8 µM.

Regarding `COC(=O)c1c(-c2ccccn2)n(Cc2ccc(C)cc2)c(-c2ccccn2)cc1=O`, the result with Staphylococcus aureus was inactive. In addition, the IC50 in the series with Plasmodium falciparum [10] came to 9.1 µM; in the series on Plasmodium falciparum [19], 40 µM.

For `Cl.Clc1cccc(Cl)c1CO/N=C/C1CCN(CCCc2ccccc2)CC1`, in the series on Staphylococcus aureus, the outcome was inactive. For the same molecule, the 50% inhibitory concentration (IC50) in the series on Plasmodium falciparum [2] worked out at 8.29 µM; with Plasmodium falciparum [10], 11.8 µM. The molecule also had an ED50 in the series on Leishmania major of 30.72 µM. In addition, the CC50 at 48 h in series [4] worked out at 28.4 µM.

Take `CCC[C@@H]1CC2(C[C@H](CCC)N1)C(=O)NC(=O)N2c1ccccc1` (stereo partly drawn): the outcome with Staphylococcus aureus was inactive. In addition, in series [3], the EC50 is above 100 µM. Besides, the ED50 with Leishmania major is above 100 µM. The CC50 at 48 h in series [4] turned out to be 36 µM. For the same molecule, the half-inhibitory concentration (IC50) entry with Plasmodium falciparum [9] was “Not Active”.

As to `CC[C@@H]1CC2(C[C@H](CC)N1)C(=O)N(CCc1ccccc1)C(=O)N2c1ccccc1` (stereo partly drawn), the result in the series with Staphylococcus aureus was inactive. Moreover, in series [3], the EC50 came out at 18.1 µM. For the same molecule, the ED50 in the series on Leishmania major was 41.1 µM. In series [4], the CC50 at 48 h is 32.3 µM. Moreover, in the series on Plasmodium falciparum [9], the IC50 result is “Not Active”.

`C=CCN1[C@@H](c2ccccn2)C(C(=O)OC)=C(O)C[C@H]1c1ccccn1`: the result in the series with Staphylococcus aureus was inactive. Further, the midpoint of inhibition in the series on Plasmodium falciparum [10], the IC50, lay at 1.4 µM. Besides, the ED50 in the series with Leishmania major is 50 µM. In addition, the CC50 at 48 h in series [4] worked out at 35 µM.

For `COC(=O)C1=C(c2ccccn2)N(Cc2ccc(Cl)cc2)C(c2ccccn2)CC1=O` (stereo not drawn), the result in the series on Staphylococcus aureus was inactive. Besides, the IC50 in the series with Plasmodium falciparum [10] was found to be 18 µM.

Consider `COC(=O)C1C(=O)C(C(=O)OC)[C@H](c2ccccn2)N(CCCC(=O)O)[C@@H]1c1ccccn1` (stereo partly drawn), for which the outcome in the series with Staphylococcus aureus was inactive. In addition, in series [3], the EC50 amounted to 19.3 µM. In the series on Leishmania major, this molecule displayed an ED50 above 100 µM. Besides, the CC50 at 48 h in [4] was determined as 46 µM. Besides, in the series with Plasmodium falciparum [9], the concentration for half-maximal inhibition (IC50) entry is given as “Not Active”.

Consider `COC(=O)C1C(=O)C(C(=O)OC)[C@H](c2ccc([N+](=O)[O-])cc2)N(Cc2ccccc2)[C@@H]1c1ccc([N+](=O)[O-])cc1` (stereo partly drawn), for which the result with Staphylococcus aureus was inactive. The concentration for half-maximal inhibition (IC50) in the series with Plasmodium falciparum [5] was 11.9 µM. Moreover, in series [3], the EC50 came out at 3.01 µM. In addition, in the series with Leishmania major, the ED50 is above 100 µM. Further, the CC50 at 48 h in [4] is 18.4 µM. Moreover, the Inhibition in [6] and in series [7] was 20% in each case.

The term IC50 denotes the midpoint of a concentration-inhibition curve. The term Inhibition denotes the share of the control response that was lost under treatment.
